The test system of data set [1] is Mus musculus. Description: Antiinflammatory activity in LPS-induced BALB/c sepsis mouse model assessed as reversal of LPS-induced spleen […] index at 20 mg/kg, po preadministered with compound for 14 days followed by LPS stimulation and measured after 6 hrs. The format is functional, organism-based. The following applies: time 342.0 hrs.
A further data set has as its system MV4-11. Put plainly: Antiproliferative activity against human MV4-11 cells assessed as inhibition of cell proliferation incubated for 48 hrs by CCK8 assay. The following applies: MV4-11, 48 h. The format is functional, cell-based. For orientation: Formazan colour is commonly taken as a measure of viable cells.
Data set [2] deals with Mus musculus. Description: Antiinflammatory activity in LPS-induced BALB/c sepsis mouse model assessed as decrease in volume of spleen nucleus at 10 to 20 mg/kg, po preadministered with compound for 14 days followed by LPS stimulation and measured after 6 hrs by H&E staining based analysis. The following applies: dose 10-20 mg/kg, time 342.0 hrs. Format: functional, organism-based.

Data set [3] is described as follows: Cmax in Sprague-Dawley rat at 5 mg/kg, iv measured after 48 hrs. Format: ADME, organism-based. The following applies: in vivo.
The subject of data set [4] is Mus musculus. Description: Antiinflammatory activity in LPS-induced BALB/c sepsis mouse model assessed as decrease in serum creatinine level at 10 to 20 mg/kg, po preadministered with compound for 14 days followed by LPS stimulation and measured after 6 hrs. The format is functional, organism-based. The following applies: dose 10-20 mg/kg, time 342.0 hrs.
Data set [5] can be described thus: AUC (0 to t) in Sprague-Dawley rat at 20 mg/kg, po measured after 48 hrs. The following applies: in vivo. Format: ADME, organism-based.
The test system of a further data set is RAW264.7. Description: Antiinflammatory activity against LPS-induced mouse RAW264.7 cells assessed as decrease in phosphorylated eIF4E expression at 10 to 20 uM by Western blot analysis. The format is functional, cell-based. The following applies: dose 10-20 µM.
The target in data set [6] is MAP kinase-interacting serine/threonine-protein kinase 1 (Homo sapiens, UniProt Q9BUB5). Put plainly: Inhibition of MNK1 (unknown origin) at 1 uM relative to control.
For data set [7], the target named is MAP kinase-interacting serine/threonine-protein kinase 2 (Homo sapiens, UniProt Q9HBH9). Put plainly: Inhibition of MNK2 (unknown origin) at 1 uM relative to control.
Data set [8] can be described thus: Oral bioavailability in Sprague-Dawley rat at 20 mg/kg measured after 48 hrs. The following applies: in vivo. The format is ADME, organism-based.
A short description of data set [9]: Toxicity in BALB/c mouse assessed as change in body weight at 10 to 20 mg/kg, po administered for 14 days. The format is organism-based. The following applies: in vivo, 336 h, dose 10-20 mg/kg, time 14 day.
For data set [10], the system named is Mus musculus. Description: Antiinflammatory activity in LPS-induced BALB/c sepsis mouse model assessed as decrease in serum ALT level at 10 to 20 mg/kg, po preadministered with compound for 14 days followed by LPS stimulation and measured after 6 hrs. The format is functional, organism-based. The following applies: dose 10-20 mg/kg, time 342.0 hrs.
The subject of data set [11] is Mus musculus. Put plainly: Antiinflammatory activity in LPS-induced BALB/c sepsis mouse model assessed as decrease in cell gap in spleen at 10 to 20 mg/kg, po preadministered with compound for 14 days followed by LPS stimulation and measured after 6 hrs by H&E staining based analysis. The format is functional, organism-based. The following applies: dose 10-20 mg/kg, time 342.0 hrs.

Data set [12] relates to Mus musculus. Put plainly: Antiinflammatory activity in LPS-induced BALB/c sepsis mouse model assessed as decrease in infiltration of macrophages in spleen at 10 to 20 mg/kg, po preadministered with compound for 14 days followed by LPS stimulation and measured after 6 hrs by immunohistochemistry analysis. Format: functional, organism-based. The following applies: dose 10-20 mg/kg, time 342.0 hrs.

These results are taken from ChEMBL document CHEMBL5537205, “Discovery of D25, a Potent and Selective MNK Inhibitor for Sepsis-Associated Acute Spleen Injury” (J Med Chem, 2024).

Calls of active or inactive are those of the source. The rule behind the calls is not given here.

Sequence of MAP kinase-interacting serine/threonine-protein kinase 2 (Q9HBH9 whole entry, looked up): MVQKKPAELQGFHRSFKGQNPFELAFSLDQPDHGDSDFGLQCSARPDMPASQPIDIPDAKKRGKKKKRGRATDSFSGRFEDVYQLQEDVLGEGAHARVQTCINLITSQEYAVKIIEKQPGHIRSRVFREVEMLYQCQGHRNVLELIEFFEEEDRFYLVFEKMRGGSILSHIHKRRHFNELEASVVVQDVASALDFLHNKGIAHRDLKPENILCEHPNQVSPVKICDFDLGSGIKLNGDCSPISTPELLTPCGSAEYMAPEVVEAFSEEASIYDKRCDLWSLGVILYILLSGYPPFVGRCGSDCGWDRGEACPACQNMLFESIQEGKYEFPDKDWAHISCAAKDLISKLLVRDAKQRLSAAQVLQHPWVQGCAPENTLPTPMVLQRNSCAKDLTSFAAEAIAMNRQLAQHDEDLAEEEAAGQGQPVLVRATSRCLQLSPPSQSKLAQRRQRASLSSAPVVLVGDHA
Sequence of MAP kinase-interacting serine/threonine-protein kinase 1 (Q9BUB5 whole entry, looked up): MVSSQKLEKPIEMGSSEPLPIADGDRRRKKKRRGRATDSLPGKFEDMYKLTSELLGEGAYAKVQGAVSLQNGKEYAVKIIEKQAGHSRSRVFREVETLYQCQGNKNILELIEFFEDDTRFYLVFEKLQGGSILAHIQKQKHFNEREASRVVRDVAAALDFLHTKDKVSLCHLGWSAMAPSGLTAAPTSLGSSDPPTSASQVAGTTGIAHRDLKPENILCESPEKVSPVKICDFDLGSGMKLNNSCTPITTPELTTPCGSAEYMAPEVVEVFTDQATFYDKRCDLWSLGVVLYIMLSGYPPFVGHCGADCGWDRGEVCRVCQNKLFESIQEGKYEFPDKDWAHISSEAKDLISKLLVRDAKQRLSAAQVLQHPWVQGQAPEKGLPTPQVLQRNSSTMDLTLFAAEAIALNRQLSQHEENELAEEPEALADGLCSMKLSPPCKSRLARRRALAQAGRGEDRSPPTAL

In general, IC50 refers to the concentration that gives 50% inhibition. Broadly, the Cmax is the highest concentration seen after dosing. Usually inhibition stands for the share of the control response that was lost under treatment. Turning to `c1cc(-c2cc(C3CCNCC3)n[nH]2)c2cc[nH]c2n1`, the outcome in the data set with Mus musculus [1], in the data set with Mus musculus [2], in the data set with Mus musculus [4], with RAW264.7, in the data set with Mus musculus [10] and with Mus musculus [11] was Active. For the same compound, the outcome in the data set on Mus musculus [12] was Active. Further, the IC50 in the data set on MV4-11 came to 0.55 µM. The compound further had a Cmax in [3] of 3580 ng/mL. In [5], this compound returned an AUCt of 755.3 ng·h/mL. Also, the inhibition amounted to 88.3% in [6] and 85.8% in data set [7]. The F in data set [8] was 1.16%. In data set [9], the Activity entry is listed as “Non-Toxic”.
